The text below walks through data of US8822464B2, “N-aryl-piperazine derivatives and their use as positive allosteric modulators of mGluR5 receptors” (Boehringer Ingelheim International GmbH, priority 2011, dated 2014).

By EC50 is commonly meant the concentration needed to bring the measured effect to its halfway point.

T1 sequence (P41594 21-1212): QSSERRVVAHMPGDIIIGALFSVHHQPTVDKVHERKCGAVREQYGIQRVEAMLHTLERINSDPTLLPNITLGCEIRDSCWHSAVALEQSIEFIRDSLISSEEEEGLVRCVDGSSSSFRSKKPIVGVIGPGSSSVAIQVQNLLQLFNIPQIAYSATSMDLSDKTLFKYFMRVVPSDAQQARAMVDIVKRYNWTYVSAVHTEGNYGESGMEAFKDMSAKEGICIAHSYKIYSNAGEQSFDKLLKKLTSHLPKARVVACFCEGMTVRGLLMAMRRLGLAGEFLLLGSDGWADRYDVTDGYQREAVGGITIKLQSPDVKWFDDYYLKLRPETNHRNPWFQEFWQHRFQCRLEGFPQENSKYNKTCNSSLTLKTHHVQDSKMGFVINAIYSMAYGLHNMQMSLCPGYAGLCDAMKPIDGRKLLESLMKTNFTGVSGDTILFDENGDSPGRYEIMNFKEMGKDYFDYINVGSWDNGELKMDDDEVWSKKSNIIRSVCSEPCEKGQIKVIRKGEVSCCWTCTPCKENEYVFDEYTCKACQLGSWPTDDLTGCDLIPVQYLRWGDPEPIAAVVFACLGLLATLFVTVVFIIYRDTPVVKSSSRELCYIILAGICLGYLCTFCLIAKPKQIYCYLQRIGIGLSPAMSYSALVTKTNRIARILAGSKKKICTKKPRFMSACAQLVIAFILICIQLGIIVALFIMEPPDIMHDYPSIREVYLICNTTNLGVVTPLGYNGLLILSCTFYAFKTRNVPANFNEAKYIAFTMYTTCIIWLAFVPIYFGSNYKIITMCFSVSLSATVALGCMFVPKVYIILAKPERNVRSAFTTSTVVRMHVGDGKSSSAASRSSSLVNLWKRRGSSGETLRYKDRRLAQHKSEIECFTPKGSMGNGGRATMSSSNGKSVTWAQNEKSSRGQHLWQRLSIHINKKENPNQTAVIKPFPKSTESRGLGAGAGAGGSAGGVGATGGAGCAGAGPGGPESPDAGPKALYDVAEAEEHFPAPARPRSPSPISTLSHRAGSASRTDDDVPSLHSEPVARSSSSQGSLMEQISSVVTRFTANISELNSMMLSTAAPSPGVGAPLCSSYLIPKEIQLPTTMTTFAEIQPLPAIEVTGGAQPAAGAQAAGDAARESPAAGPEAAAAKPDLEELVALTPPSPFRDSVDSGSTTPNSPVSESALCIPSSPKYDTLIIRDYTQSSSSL

The assay concerns the target T1, human recombinant mGluR5 (Homo sapiens, UniProt P41594).
T1 construct: expressed in transfected cells; host or cells: HEK 293 cell line; cultured with tetracycline, hygromycin and geneticin; tetracycline withdrawn 3-7 days before the assay
Description: positive modulation of mGluR5, calcium based FLIPR assay in HEK 293 cells. Conditions: HEK 293 cell line expressing human recombinant mGluR5; peak height of Ca release fluorescence signal after glutamate at approximately 5% basal stimulation; nonlinear regression. How it is done:
The positive modulation of mGluR5 is measured in a HEK 293 cell line expressing human recombinant mGluR5 and is detected with calcium based FLIPR assay. The cells are cultured with DMEM supplemented with 10% FCS, 2 μg/mL tetracycline, 100 μg/mL hygromycin and 500 μg/mL gneticin. The cell culture media is exchanged for tetracycline-free cell culture media 3-7 days before the assay. One day before the assay the cell culture medium is exchanged to DMEM without glutamine and phenol red and supplemented with 10% FCS, 100 μg/mL hygromycin and 500 μg/mL geneticin. On the assay day, the medium of the subconfluent cultures is removed and the cells are detached by addition of 2.5 ml EDTA(0.02%) per 175 cm2 culture flask for 1 minute. The cells are resuspend in Ringer solution (140 mM NaCl, 5 mM KCl, 2.5 mM CaCl2, 1.5 mM MgCl2, 5 mM Glucose, 10 mM Hepes; adjusted to pH 7.4 with NaOH), pooled and Ringer solution added to adjust the volume to 50 mL. The cell suspension is centrifuged for 5 min at 1500 U/min (425 g). The supernatant is removed and the cells washed a second time with 50 ml fresh Ringer solution and centrifuged again as before. The supernatant is again removed and the pellet resuspended in Ringer solution to 1,000,000 cells/ml (1×10^6 cells/mL). The cells are plated onto BD BioCoat Poly-D-Lysine 384 well plates (20.000 cells/well; 20 μl/well). The lid covered plates are then incubated until use at 37° C./10% CO2. For dye loading, 20 μl of Calcium-4 assay kit solution (prepared according to the manufacturer's description in Ringer solution) are added to the cells and the plates are incubated for 80 min 37° C. and then 10 min at room temperature.
Controls, Compound Dilution and Assay Execution:
Each assay plate contained wells with “high” and “low” controls:
Low controls 1% DMSO/ringer solution+basal glutamate activation (defined as 100% CTL).
High controls 10 μM CDPPB+basal glutamate activation (defined as 200% CTL).
Test compounds are dissolved and diluted in DMSO to 100-fold the desired concentrations. In a second step, the compounds are diluted in Ringer solution such that the compounds are 4-fold more concentrated than the desired final assay concentration. The final DMSO concentration was 1%.
20 μl of each compound solution are then transferred to the assay plate and the Ca2+ kinetic is measured to determine any intrinsic compound activity. After 5 min incubation in the FLIPR device, the second stimulation with 20 μl of glutamate in Ringer solution (glutamate concentration adjusted to approximately 5% basal stimulation of the maximal possible glutamate effect) is added and the kinetic Ca2+ response of the wells was measured for the modulation effect.
The peak height of the Ca release related fluorescence signal (9-66) is used for the EC50. The EC50 of the modulation is calculated over a nonlinear regression with GraphPad Prism (Table 1).
For the compound `O=C(Cn1nc(-c2ccc(F)cn2)cc1-c1ccc(F)cc1)N1CCN(c2ccccn2)CC1` [Example 7.01.59], the EC50 is 0.118 µM.
As to `O=C(Cn1nc(-c2ccc(F)cn2)cc1-c1ccccc1)N1CCN(c2cccnn2)CC1` [Example 7.01.60], the 50% effective concentration (EC50) came to 1.23 µM.
On to `COc1cc(N2CCN(C(=O)Cn3nc(-c4ccc(F)cn4)cc3-c3ccccc3)CC2)ncn1` [Example 7.01.61], for which the EC50 stood at 0.246 µM.
Turning to `O=C(Cn1nc(-c2ccc(F)cn2)cc1-c1ccc(F)cc1)N1CCN(c2ncccn2)CC1` [Example 7.01.62], the half-maximal effective concentration (EC50) came to 0.048 µM.
In the case of `COc1cc(N2CCN(C(=O)Cn3nc(-c4ccc(F)cn4)cc3-c3ccc(F)cc3)CC2)ncn1` [Example 7.01.63], the concentration for a half-maximal effect (EC50) was 0.094 µM.
On to `O=C(Cn1nc(-c2ccc(F)cn2)cc1-c1ccc(F)cc1)N1CCN(c2cccnn2)CC1` [Example 7.01.64], for which the concentration giving a half-maximal response (EC50) turned out to be 0.677 µM.
With `O=C(Cn1nc(-c2ccc(F)cc2)cc1-c1ccc(F)cn1)N1CCN(c2ncccn2)CC1` [Example 7.01.65], the half-maximal effective concentration (EC50) was 0.253 µM.
Regarding `O=C(Cn1nc(-c2ccccc2)cc1-c1ccc(F)cn1)N1CCN(c2ncccn2)CC1` [Example 7.01.66], the EC50 was found to be 0.957 µM.
With `CCc1cc(-c2ccc(F)c(C)c2)nn1CC(=O)N1CCN(c2cc(OC)ncn2)CC1` [Example 7.01.67], the concentration for a half-maximal effect (EC50) came to 0.061 µM.
Regarding `CCc1cc(-c2ccc(F)c(C)c2)nn1CC(=O)N1CCN(c2cc(OC)ccn2)CC1` [Example 7.01.68], the EC50 came out at 0.074 µM.
Regarding `CCc1cc(-c2ccc(F)c(C)c2)nn1CC(=O)N1CCN(c2ccccn2)CC1` [Example 7.01.69], the EC50 stood at 0.079 µM.
To `CCc1cc(-c2ccc(F)c(C)c2)nn1CC(=O)N1CCN(c2ncccn2)CC1` [Example 7.01.70] belongs 0.041 µM.
To `CCc1cc(-c2ccc(F)c(C)c2)nn1CC(=O)N1CCN(c2ncc(OC)cn2)CC1` [Example 7.01.71] belongs 0.051 µM.
Take `CCc1cc(-c2ccc(F)c(C)c2)nn1CC(=O)N1CCN(c2ncc(F)cn2)CC1` [Example 7.01.72]: the half-maximal effective concentration (EC50) worked out at 0.063 µM.
As for `CCc1cc(-c2ccc(F)cc2)nn1CC(=O)N1CCN(c2ccccn2)CC1` [Example 7.01.73], the EC50 amounted to 0.419 µM.
As for `CCc1cc(-c2ccc(F)cc2)nn1CC(=O)N1CCN(c2ncccn2)CC1` [Example 7.01.74], the EC50 turned out to be 0.253 µM.
As to `CCc1cc(-c2ccc(F)cc2)nn1CC(=O)N1CCN(c2cc(OC)ccn2)CC1` [Example 7.01.75], the EC50 is 0.421 µM.
Turning to `CCc1cc(-c2ccc(F)cc2)nn1CC(=O)N1CCN(c2ncc(OC)cn2)CC1` [Example 7.01.76], the half-maximal effective concentration (EC50) came to 0.388 µM.
As to `CCc1cc(-c2ccc(F)cc2)nn1CC(=O)N1CCN(c2cc(OC)ncn2)CC1` [Example 7.01.77], the EC50 is 0.697 µM.
In the case of `CCc1cc(-c2ccc(F)cc2)nn1CC(=O)N1CCN(c2ncc(F)cn2)CC1` [Example 7.01.78], the EC50 was found to be 0.723 µM.
As to `CCCc1cc(-c2ccc(F)c(C)c2)nn1CC(=O)N1CCN(c2cc(OC)ncn2)CC1` [Example 7.01.79], the EC50 turned out to be 0.026 µM.
For the compound `CCCc1cc(-c2ccc(F)c(C)c2)nn1CC(=O)N1CCN(c2cc(OC)ccn2)CC1` [Example 7.01.80], the EC50 stood at 0.045 µM.
Regarding `CCCc1cc(-c2ccc(F)c(C)c2)nn1CC(=O)N1CCN(c2ncccn2)CC1` [Example 7.01.81], the half-maximal effective concentration (EC50) was 0.013 µM.
For the compound `CCCc1cc(-c2ccc(F)c(C)c2)nn1CC(=O)N1CCN(c2ncc(OC)cn2)CC1` [Example 7.01.82], the EC50 was 0.033 µM.
In the case of `CCCc1cc(-c2ccc(F)c(C)c2)nn1CC(=O)N1CCN(c2ccccn2)CC1` [Example 7.01.83], the EC50 was found to be 0.052 µM.
Take `CCCc1cc(-c2ccc(F)c(C)c2)nn1CC(=O)N1CCN(c2cccnn2)CC1` [Example 7.01.84]: the EC50 is 0.067 µM.
Take `COc1ccnc(N2CCN(C(=O)Cn3nc(-c4ccc(F)cc4)cc3C(C)C)CC2)c1` [Example 7.01.85]: the 50% effective concentration (EC50) came out at 0.371 µM.
On to `CCc1cc(-c2ccc(C)c(C)c2)nn1CC(=O)N1CCN(c2ncccn2)CC1` [Example 7.01.87], for which the EC50 was determined as 0.069 µM.
With `COc1cc(N2CCN(C(=O)Cn3nc(-c4ccc(F)cc4)cc3C(C)C)CC2)ncn1` [Example 7.01.88], the EC50 was 0.366 µM.
`COc1cnc(N2CCN(C(=O)Cn3nc(-c4ccc(F)cc4)cc3C(C)C)CC2)nc1` [Example 7.01.89]: the EC50 came to 0.577 µM.
In the case of `CC(C)c1cc(-c2ccc(F)cc2)nn1CC(=O)N1CCN(c2ncccn2)CC1` [Example 7.01.90], the EC50 is 0.157 µM.
Under `CCc1cc(-c2ccc(C)c(C)c2)nn1CC(=O)N1CCN(c2ccccn2)CC1` [Example 7.01.91] stands 0.195 µM; under `CCc1cc(-c2ccc(C)c(C)c2)nn1CC(=O)N1CCN(c2cc(OC)ccn2)CC1` [Example 7.01.92], 0.302 µM; under `CCc1cc(-c2ccc(C)c(C)c2)nn1CC(=O)N1CCN(c2cc(OC)ncn2)CC1` [Example 7.01.93], 0.17 µM.
On to `CCc1cc(-c2cccc(C)c2)nn1CC(=O)N1CCN(c2ncccn2)CC1` [Example 7.01.94], for which the EC50 is 0.136 µM.
In the case of `CCc1cc(-c2cccc(C)c2)nn1CC(=O)N1CCN(c2ccccn2)CC1` [Example 7.01.95], the 50% effective concentration (EC50) was 0.237 µM.
Regarding `CCc1cc(-c2cccc(C)c2)nn1CC(=O)N1CCN(c2cc(OC)ccn2)CC1` [Example 7.01.96], the EC50 turned out to be 0.168 µM.
Under `CCc1cc(-c2cccc(C)c2)nn1CC(=O)N1CCN(c2cc(OC)ncn2)CC1` [Example 7.01.97] stands 0.181 µM; under `Cc1ccc(-c2cc(-c3ccccc3)n(CC(=O)N3CCN(c4ncccn4)CC3)n2)cc1C` [Example 7.01.98], 0.013 µM.
Consider `CCc1cc(-c2ccc(C)c(C)c2)nn1CC(=O)N1CCN(c2ncc(OC)cn2)CC1` [Example 7.01.99], for which the half-maximal effective concentration (EC50) is 0.129 µM.
As to `CCc1cc(-c2cccc(C)c2)nn1CC(=O)N1CCN(c2ncc(OC)cn2)CC1` [Example 7.01.100], the EC50 was 0.126 µM.
With `COc1cc(N2CCN(C(=O)Cn3nc(-c4ccc(C)c(C)c4)cc3-c3ccccc3)CC2)ncn1` [Example 7.01.101], the 50% effective concentration (EC50) stood at 0.017 µM.
For the compound `Cc1ccc(-c2cc(-c3ccccc3)n(CC(=O)N3CCN(c4ccccn4)CC3)n2)cc1C` [Example 7.01.102], the concentration for a half-maximal effect (EC50) worked out at 0.02 µM.
Regarding `COc1cnc(N2CCN(C(=O)Cn3nc(-c4ccc(C)c(C)c4)cc3-c3ccccc3)CC2)nc1` [Example 7.01.103], the concentration giving a half-maximal response (EC50) is 0.024 µM.
Turning to `Cc1cc(-c2cc(C)n(CC(=O)N3CCN(c4ncccn4)CC3)n2)ccc1F` [Example 7.01.104], the EC50 worked out at 0.039 µM.
With `Cc1ccc(-c2cc(-c3ccccc3)n(CC(=O)N3CCN(c4ccccn4)CC3)n2)nc1` [Example 7.01.106], the EC50 stood at 0.035 µM.
For the compound `COCCCc1cc(-c2ccc(F)c(C)c2)nn1CC(=O)N1CCN(c2ncccn2)CC1` [Example 7.01.107], the EC50 was determined as 0.064 µM.
Take `COCCCc1cc(-c2ccc(F)c(C)c2)nn1CC(=O)N1CCN(c2ccccn2)CC1` [Example 7.01.108]: the EC50 was determined as 1.26 µM.
Under `COCCCc1cc(-c2ccc(F)c(C)c2)nn1CC(=O)N1CCN(c2cc(OC)ccn2)CC1` [Example 7.01.109] stands 0.14 µM; under `COCCCc1cc(-c2ccc(F)c(C)c2)nn1CC(=O)N1CCN(c2cc(OC)ncn2)CC1` [Example 7.01.110], 0.137 µM.
Turning to `Cc1ccc(-c2cc(-c3ccccc3)n(CC(=O)N3CCN(c4ncccn4)CC3)n2)nc1` [Example 7.01.111], the concentration for a half-maximal effect (EC50) was found to be 0.024 µM.
For `COCCCc1cc(-c2ccc(F)c(C)c2)nn1CC(=O)N1CCN(c2ncc(OC)cn2)CC1` [Example 7.01.112], the 50% effective concentration (EC50) was found to be 0.12 µM.
Consider `CCc1cc(-c2cccc(Cl)c2)nn1CC(=O)N1CCN(c2ncccn2)CC1` [Example 7.01.113], for which the half-maximal effective concentration (EC50) was determined as 0.094 µM.
Take `CCc1cc(-c2cccc(Cl)c2)nn1CC(=O)N1CCN(c2ccccn2)CC1` [Example 7.01.114]: the half-maximal effective concentration (EC50) stood at 0.153 µM.
On to `CCc1cc(-c2cccc(Cl)c2)nn1CC(=O)N1CCN(c2ncc(OC)cn2)CC1` [Example 7.01.115], for which the 50% effective concentration (EC50) amounted to 0.065 µM.
`CCc1cc(-c2cccc(Cl)c2)nn1CC(=O)N1CCN(c2cc(OC)ncn2)CC1` [Example 7.01.116]: the EC50 was determined as 0.089 µM.
